Data from patent publication US20090298878A1, “OXIME COMPOUNDS AND THE USE THEREOF” (priority 2006, published 2009).

These molecules were tested against T1, N-type calcium channel (NTCC) (Homo sapiens, UniProt Q00975) (assay: FLIPR calcium mobilization assay for N-type calcium channel (differentiated IMR32 cells)). Conditions: about 1.0 μM or less; calcium mobilization and/or electrophysiological assay.
T1 construct: host or cells: IMR32 cells differentiated with dibutyryl cAMP and bromodeoxyuridine
Type: cell-based
Method: Cell maintenance and differentiation. Unless noted otherwise, cell culture reagents were purchased from Mediatech of Hemdon, Md. IMR32 cells (American Type Culture Collection, ATCC, Manassas, Va.) were routinely cultured in growth medium consisting of minimum essential medium containing 10% fetal bovine serum (FBS, Hyclone, Logan, Utah), 100 U/mL penicillin, 100 μg/mL streptomycin, 2 mM L-glutamine, 1 mM sodium pyruvate, and 1× MEM non-essential amino acids. 80-90% confluent flasks of cells were differentiated using the following differentiation medium: Growth medium plus 1 mM dibutyryl cyclic AMP (Sigma, St. Louis, Mo.), and 2.5 μM bromodeoxyuridine (Sigma). Cells were differentiated for 8 days by replacing differentiation medium every 2-3 days.
FLIPR Calcium Mobilization Assay for N-type Calcium Channel. One day prior to performing this assay, differentiated IMR32 cells were treated with 1× CellStripper, and seeded on poly-D-lysine-coated 96-well clear-bottom black plates (Becton Dickinson, Franklin Lakes, N.J.) at 200,000 cells/well. On the day of the assay, the cell plates were washed with IMR32 buffer (127 mM NaCl, 1 mM KCl, 2 mM MgCl2, 700 μM NaH2PO4, 5 mM CaCl2, 5 mM NaHCO3, 8 mM HEPES, 10 mM glucose, pH 7.4), then pre-stimulated with KCl and loaded as follows: 0.05 mL of IMR32 buffer, 0.05 mL of each compound tested diluted in IMR32 buffer containing 20 μM nitrendipine (Sigma), and 0.1 mL KCl dissolved in IMR32 buffer, plus Fluo-4 were added (3 μM final concentration, Molecular Probes, Eugene, Oreg.). Final test compound concentrations ranged from about 846 pM to about 17 μM, final nitrendipine concentration was 5 μM, and final KCl concentration was 90 mM. After 1 hour, the cells were washed twice with 0.05 mL of each compound tested in nitrendipine-containing IMR32 buffer (no KCl or Fluo-4), and then replaced with 0.1 mL of each compound tested in nitrendipine-containing IMR32 buffer. Plates were then transferred to a Fluorimetric imaging Plate Reader (FLIPR^96, Molecular Devices, Inc., Sunnyvale, Calif.) for assay. The FLIPR measured basal Fluo-4 fluorescence for 315 seconds (i.e., 5 minutes and 15 seconds), then added 0.1 mL KCl agonist dissolved in IMR32 buffer and measured fluorescence for another 45 seconds. Final test compound concentrations on the cells after FLIPR read ranged from about 846 pM to about 17 μM, final nitrendipine concentration was 5 μM, and final KCl concentration was 90 mM. Data were collected over the entire time course and analyzed using Excel, Graph Pad Prism (version 3.02, Graph Pad, San Diego, Calif.), or an in-house non-linear regression analysis software.

T1 sequence (Q00975 whole entry): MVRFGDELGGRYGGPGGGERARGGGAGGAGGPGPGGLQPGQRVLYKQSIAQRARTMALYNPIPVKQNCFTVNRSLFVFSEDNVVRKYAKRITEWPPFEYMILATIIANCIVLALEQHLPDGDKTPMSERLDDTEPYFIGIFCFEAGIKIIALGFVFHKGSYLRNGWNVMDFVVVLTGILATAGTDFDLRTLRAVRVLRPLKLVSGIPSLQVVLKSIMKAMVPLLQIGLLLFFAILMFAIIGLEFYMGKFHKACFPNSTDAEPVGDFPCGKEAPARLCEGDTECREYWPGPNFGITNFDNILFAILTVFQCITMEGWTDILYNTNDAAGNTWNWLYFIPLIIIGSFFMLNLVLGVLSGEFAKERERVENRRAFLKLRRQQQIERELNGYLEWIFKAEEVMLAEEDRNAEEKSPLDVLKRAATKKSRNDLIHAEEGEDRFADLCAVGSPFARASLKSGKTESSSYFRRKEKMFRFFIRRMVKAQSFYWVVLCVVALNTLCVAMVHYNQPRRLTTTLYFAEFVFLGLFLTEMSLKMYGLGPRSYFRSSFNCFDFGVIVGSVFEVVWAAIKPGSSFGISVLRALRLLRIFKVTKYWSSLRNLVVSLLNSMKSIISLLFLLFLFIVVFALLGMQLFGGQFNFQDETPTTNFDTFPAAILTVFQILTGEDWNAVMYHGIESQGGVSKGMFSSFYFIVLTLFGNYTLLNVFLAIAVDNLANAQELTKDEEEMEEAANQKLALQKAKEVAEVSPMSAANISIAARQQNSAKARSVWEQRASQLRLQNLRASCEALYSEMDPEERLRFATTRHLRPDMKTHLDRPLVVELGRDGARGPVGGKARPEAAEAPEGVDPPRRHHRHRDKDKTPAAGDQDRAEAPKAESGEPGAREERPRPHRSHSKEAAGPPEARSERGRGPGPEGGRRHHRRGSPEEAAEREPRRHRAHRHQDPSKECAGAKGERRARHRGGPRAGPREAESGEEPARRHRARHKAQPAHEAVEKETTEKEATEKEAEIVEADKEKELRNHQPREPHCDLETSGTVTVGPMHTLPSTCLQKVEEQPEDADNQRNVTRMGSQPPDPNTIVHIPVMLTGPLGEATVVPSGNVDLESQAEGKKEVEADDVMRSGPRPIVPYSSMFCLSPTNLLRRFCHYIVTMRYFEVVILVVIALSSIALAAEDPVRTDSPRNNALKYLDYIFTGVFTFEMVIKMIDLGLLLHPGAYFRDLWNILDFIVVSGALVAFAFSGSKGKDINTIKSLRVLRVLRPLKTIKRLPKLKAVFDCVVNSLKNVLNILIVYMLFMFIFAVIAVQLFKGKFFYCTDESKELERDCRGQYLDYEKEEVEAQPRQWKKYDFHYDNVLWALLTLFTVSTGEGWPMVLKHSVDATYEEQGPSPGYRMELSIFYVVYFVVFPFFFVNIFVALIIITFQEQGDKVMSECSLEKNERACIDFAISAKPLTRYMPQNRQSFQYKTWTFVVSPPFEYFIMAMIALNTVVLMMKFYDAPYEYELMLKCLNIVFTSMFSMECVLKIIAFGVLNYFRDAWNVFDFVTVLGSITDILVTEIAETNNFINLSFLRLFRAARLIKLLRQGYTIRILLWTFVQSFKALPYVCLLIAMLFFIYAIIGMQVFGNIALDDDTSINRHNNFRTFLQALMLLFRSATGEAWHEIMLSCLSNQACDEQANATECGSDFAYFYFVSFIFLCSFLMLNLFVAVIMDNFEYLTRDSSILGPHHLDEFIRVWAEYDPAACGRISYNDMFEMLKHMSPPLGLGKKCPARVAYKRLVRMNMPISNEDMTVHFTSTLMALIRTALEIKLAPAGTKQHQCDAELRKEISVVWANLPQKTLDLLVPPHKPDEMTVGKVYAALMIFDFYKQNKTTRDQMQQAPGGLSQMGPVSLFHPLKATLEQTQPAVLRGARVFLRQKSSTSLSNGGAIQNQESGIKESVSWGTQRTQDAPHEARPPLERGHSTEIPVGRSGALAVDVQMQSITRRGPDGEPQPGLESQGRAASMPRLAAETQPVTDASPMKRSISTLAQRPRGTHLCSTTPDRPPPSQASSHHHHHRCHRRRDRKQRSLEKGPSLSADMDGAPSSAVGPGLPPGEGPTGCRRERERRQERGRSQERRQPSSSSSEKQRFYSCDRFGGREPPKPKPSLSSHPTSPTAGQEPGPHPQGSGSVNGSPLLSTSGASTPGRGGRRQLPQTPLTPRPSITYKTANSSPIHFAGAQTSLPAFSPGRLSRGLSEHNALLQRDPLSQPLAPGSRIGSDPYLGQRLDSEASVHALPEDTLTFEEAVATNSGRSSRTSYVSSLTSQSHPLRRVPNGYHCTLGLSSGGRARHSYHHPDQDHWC

Row | IC50 [nM] | Structure (SMILES)
1 | ≤ 1000 | CCCCc1ccc(S(=O)(=O)N2CCC(=NOCc3ccc(F)c(C(F)(F)F)c3)CC2)cc1 [Example 81, 1-(4-Butylbenzenesulfonyl)piperidin-4-one O-(4-fluoro-3-trifluoromethylbenzyl)oxime]
2 | ≤ 1000 | O=S(=O)(c1ccc(OC(F)(F)F)cc1)N1CCC(=NOCC2Oc3ccccc3O2)CC1 [Example 265, 1-(4-(Trifluoromethoxy)phenylsulfonyl)piperidin-4-one O-benzo[d][1,3]dioxol-2-ylmethyl oxime]
3 | ≤ 1000 | Cn1c(Cl)cc(CON=C2CCN(S(=O)(=O)c3ccc(OC(F)(F)F)cc3)CC2)cc1=O [Example 152, 6-Chloro-1-methyl-4-[1-(4-trifluoromethoxybenzenesulfonyl)piperidin-4-ylideneaminooxymethyl]-1H-pyridin-2-one]
4 | ≤ 1000 | O=S(=O)(c1cccc2cccnc12)N1CCC(=NOC(c2ccc(F)cc2)c2ccc(F)cc2)CC1 [Example 251, 1-(Quinolin-8-ylsulfonyl)piperidin-4-one O-bis(4-fluorophenyl)methyl oxime]
5 | ≤ 1000 | O=S(=O)(c1ccccn1)N1CCC(=NOC(c2ccc(F)cc2)c2ccc(F)cc2)CC1 [Example 288, 1-(Pyridin-2-ylsulfonyl)piperidin-4-one O-bis(4-fluorophenyl)methyl oxime]
6 | ≤ 1000 | Nc1ccccc1S(=O)(=O)N1CCC(=NOCc2cccc(C(F)(F)F)c2)CC1 [Example 85, 1-(2-Aminobenzenesulfonyl)piperidin-4-one O-(3-trifluoromethylbenzyl)oxime]
7 | ≤ 1000 | O=S(=O)(c1cccc(OC(F)(F)F)c1)N1CCC(=NOC(c2ccc(F)cc2)c2ccc(F)cc2)CC1 [Example 290, 1-(3-(Trifluoromethoxy)phenylsulfonyl)piperidin-4-one O-bis(4-fluorophenyl)methyl oxime]
8 | ≤ 1000 | N#Cc1cccc(C(ON=C2CCN(S(=O)(=O)c3ccc(OC(F)(F)F)cc3)CC2)c2ccccn2)c1 (stereo not shown) [Example 271, 3-(Pyridin-2-yl(1-(4-(trifluoromethoxy)phenylsulfonyl)piperidin-4-ylideneaminooxy)methyl)benzonitrile]
9 | ≤ 1000 | O=c1ccc(C(ON=C2CCN(S(=O)(=O)c3ccc(OC(F)(F)F)cc3)CC2)c2ccc(F)cc2)c[nH]1 (stereo not shown) [Example 214, 5-((4-Fluorophenyl)(1-(4-(trifluoromethoxy)phenylsulfonyl)piperidin-4-ylideneaminooxy)methyl)pyridin-2(1H)-one]
10 | ≤ 1000 | N#Cc1cccc(CON=C2CCN(S(=O)(=O)c3cccc(C#N)c3)CC2)c1 [Example 282, 3-(4-(3-Cyanobenzyloxyimino)piperidin-1-ylsulfonyl)benzonitrile]
11 | ≤ 1000 | N#Cc1cccc(CON=C2CCN(S(=O)(=O)c3ccc(F)c(F)c3)CC2)c1 [Example 210, 3-((1-(3,4-Difluorophenylsulfonyl)piperidin-4-ylideneaminooxy)methyl)benzonitrile]
12 | ≤ 1000 | O=S(=O)(c1ccc(OC(F)(F)F)cc1)N1CCC(=NOCc2cc(Cl)ccn2)CC1 [Example 118, 1-(4-Trifluoromethoxybenzenesulfonyl)piperidin-4-one O-(4-chloropyridin-2-ylmethyl)oxime]
13 | ≤ 1000 | O=S(=O)(c1ccc(F)cc1)N1CCC(=NOCc2cccc(C(F)(F)F)c2)CC1 [Example 62, 1-(4-Fluorobenzenesulfonyl)piperidin-4-one O-(3-trifluoromethylbenzyl)oxime]
14 | ≤ 1000 | O=S(=O)(c1ccc(OC(F)(F)F)cc1)N1CCC(=NOC(c2cccc(C(F)(F)F)c2)C2CC2)CC1 (stereo not shown) [Example 307, 1-(4-(Trifluoromethoxy)phenylsulfonyl)piperidin-4-one O-cyclopropyl(3-(trifluoromethyl)phenyl)methyl oxime]
15 | ≤ 1000 | O=S(=O)(c1cccc(C(F)(F)F)c1)N1CCC(=NOCCc2ccccc2)CC1 [Example 310, 1-(3-(Trifluoromethyl)phenylsulfonyl)piperidin-4-one O-phenethyl oxime]
16 | ≤ 1000 | O=S(=O)(c1ccc(NC2CC2)nc1)N1CCC(=NOCc2cccc(C(F)(F)F)c2)CC1 [Example 321, 1-(6-Cyclopropylaminopyridine-3-sulfonyl)piperidin-4-one O-(3-trifluoromethylbenzyl)oxime]
17 | ≤ 1000 | CCCCc1ccc(S(=O)(=O)N2CCC(=NOCc3ccncc3)CC2)cc1 [Example 71, 1-(4-Butylbenzenesulfonyl)piperidin-4-one O-pyridin-4-ylmethyloxime]
18 | ≤ 1000 | O=S(=O)(c1cccc(OC(F)(F)F)c1)N1CCC(=NOCc2cccc(C(F)(F)F)c2)CC1 [Example 59, 1-(3-Trifluoromethoxybenzenesulfonyl)piperidin-4-one O-(3-trifluoromethylbenzyl)oxime]
19 | ≤ 1000 | O=c1ccc(CON=C2CCN(S(=O)(=O)c3ccc(OC(F)(F)F)cc3)CC2)cn1-c1ccc(F)cc1 [Example 314, 1-(4-Fluorophenyl)-5-((1-(4-(trifluoromethoxy)phenylsulfonyl)piperidin-4-ylideneaminooxy)methyl)pyridin-2(1H)-one]
20 | ≤ 1000 | O=S(=O)(c1ccc(OC(F)(F)F)cc1)N1CCC(=NOC[C@@H]2Cc3ccccc3N2)CC1 [Example 263, (S)-1-(4-(trifluoromethoxy)phenylsulfonyl)piperidin-4-one O-indolin-2-ylmethyl oxime]
21 | ≤ 1000 | O=S(=O)(c1cccc(C(F)(F)F)c1)N1CCC(=NOC(c2ccc(F)cc2)c2ccc(F)cc2)CC1 [Example 285, 1-(3-(Trifluoromethyl)phenylsulfonyl)piperidin-4-one O-bis(4-fluorophenyl)methyl oxime]
22 | ≤ 1000 | O=S(=O)(c1ccc(OCC2CC2)cc1)N1CCC(=NOCc2cccc(C(F)(F)F)c2)CC1 [Example 95, 1-(4-Cyclopropylmethoxybenzenesulfonyl)piperidin-4-one O-(3-trifluoromethylbenzyl)oxime]
23 | ≤ 1000 | O=S(=O)(c1ccc(OC(F)(F)F)cc1)N1CCC(=NOCc2ncccc2-c2ccccc2)CC1 [Example 313, 1-(4-(Trifluoromethoxy)phenylsulfonyl)piperidin-4-one O-(3-phenylpyridin-2-yl)methyl oxime]
24 | ≤ 1000 | N#Cc1cc(CON=C2CCN(C(=O)CCC(c3ccc(F)cc3)c3ccc(F)cc3)CC2)ccc1F [Example 181, 5-((1-(4,4-Bis(4-fluorophenyl)butanoyl)piperidin-4-ylideneaminooxy)methyl)-2-fluorobenzonitrile]
25 | ≤ 1000 | N#Cc1ccccc1S(=O)(=O)N1CCC(=NOC(c2ccc(F)cc2)c2ccc(F)cc2)CC1 [Example 229, 2-(4-(Bis(4-fluorophenyl)methoxyimino)piperidin-1-ylsulfonyl)benzonitrile]
26 | ≤ 1000 | CCCCc1ccc(S(=O)(=O)N2CCC(=NOCc3cc(Cl)ccn3)CC2)cc1 [Example 73, 1-(4-Butylbenzenesulfonyl)piperidin-4-one O-(4-chloropyridin-2-ylmethyl)oxime]
27 | ≤ 1000 | N#Cc1cccc(C(ON=C2CCN(S(=O)(=O)c3ccc(OC(F)(F)F)cc3)CC2)c2ccncc2)c1 (stereo not shown) [Example 269, 3-(Pyridin-4-yl(1-(4-(trifluoromethoxy)phenylsulfonyl)piperidin-4-ylideneaminooxy)methyl)benzonitrile]
28 | ≤ 1000 | N#Cc1cccc(S(=O)(=O)N2CCC(=NOC(c3ccc(F)cc3)c3ccc(F)cc3)CC2)c1 [Example 267, 3-(4-(Bis(4-fluorophenyl)methoxyimino)piperidin-1-ylsulfonyl)benzonitrile]
29 | ≤ 1000 | COc1cc(CON=C2CCN(S(=O)(=O)c3ccc(OC(F)(F)F)cc3)CC2)cc(Cl)n1 [Example 147, 1-(4-Trifluoromethoxybenzenesulfonyl)piperidin-4-one O-(2-chloro-6-methoxypyridin-4-ylmethyl)oxime]
30 | ≤ 1000 | O=S(=O)(c1cccc(C(F)(F)F)c1)N1CCC(=NOCc2cccc(C(F)(F)F)c2)CC1 [Example 56, 1-(3-Trifluoromethylbenzenesulfonyl)piperidin-4-one O-(3-trifluoromethylbenzyl)oxime]

Same assay, conditions: calcium mobilization in vitro assay, N-type calcium channel blockers

Row | IC50 [nM] | Structure (SMILES)
31 | 1100 | O=C(CN1CCC(=NOC(c2ccc(F)cc2)c2ccc(F)cc2)CC1)Nc1cc(C(F)(F)F)cc(C(F)(F)F)c1 [Example 328, 2-(4-(Bis(4-fluorophenyl)methoxyimino)piperidin-1-yl)-N-(3,5-bis(trifluoromethyl)phenyl)acetamide]
